Measured values from PMC5629628, “The development of activatable lytic peptides for targeting triple negative breast cancer” (Cell Death Discovery, 2017).
Where two headings read alike, the source gives them in different places. Non-standard residues stand in square brackets, D forms with d. Residues, ends and D or L forms follow the SMILES beside them. Aib = CC(C)(N)C(=O)O; Ahx = NCCCCCC(=O)O; βAla = NCCC(=O)O

Columns and labels:
mouse red blood cells = assay: Haemolytic activity; type: cell-based
Experimental: Fresh mouse red blood cells were collected and centrifuged at 800 rpm for 5 min. The erythrocytes were washed and re suspended in 0.9% NaCl to 10^8/ml. A serial dilution of peptides were added and incubate at 310 K. After 1 h incubation, erythrocytes were centrifuged and the release of hemoglobin was monitored by measuring the absorbance of supernatant at 570 nm by a microplate reader (PerkinElmer).

HEK293T = assay: Cell viability, non-tumourigenic HEK293T; type: cell-based; conditions: 24 h treatment
MDA-MB-231 tumour = assay: In vivo fluorescence imaging and tissue distribution; parameters: species or system mice; conditions: Cy5-labelled peptides, n=2; for tumour accumulation (in vivo fluorescence imaging): 100 μl 50 μM, tail vein, MDA-MB-231 tumour-bearing mice
Experimental: Four-week-old nude mice were purchased from the Vital River (Beijing, China) and allowed to grow for further two weeks. Approximately 1×10^6 MDA-MB-231 cells were injected into the mammary fat pads of female mice in a vehicle of 4 mg/ml Matrigel (Becton Dickinson and Co., New York, NY, USA). One week later, mice bearing tumours around 50 mm^3 in volume were randomly divided into groups for subsequent experiments.
For optical imaging, mice were anesthetized with isoflurane. Cy5-labelled peptides were injected intravenously at a dose of 100 μl, 50 μM. At each time point, mice were again anesthetized and imaged using IVIS Spectrum Pre-clinical In Vivo Imaging System (640 nm/680 nm). Fluorescence in manually set regions of interest was quantified by Living Image. The contrast ratio was calculated by dividing the tumour fluorescence by the chest and abdomen fluorescence.

nude mice = assay: Acute toxicity in mice; type: in vivo; conditions: 40 mg/kg (200 μl, 4 mg/ml) intravenous, n=3 per group
Experimental: (§1) In acute toxicity studies, 12 mice were divided into four groups (n=3 for each group) and administered via intravenous injection with peptide (e8-Uk14, e7-Ur11) at the dose of 20 or 40 mg/kg. In chronic renal toxicity studies, mice were administered via intravenous injection with peptide (e8-Uk14, e7-Ur11) at the dose of 20 mg/kg every other day over a periods of 2 weeks.

MDA-MB-231 [1] = assay: MTT cell viability, MDA-MB-231; type: cell-based, human; conditions: for IC50: 5% FBS medium, 310 K, mean (standard deviation)
kidney = assay: Chronic renal toxicity, kidney haematoxylin-eosin staining; type: in vivo, mice; conditions: 20 mg/kg i.v. every other day over 2 weeks
Experimental: as §1

HeLa = conditions: read-out: IC50 (μM), HeLa; MTT assay, 24 h treatment, 5% FBS medium, 310 K; mean (standard deviation)
Experimental: (§2) 100 μl of 4×10^4/ml cell suspension (MDA-MB-231, MCF-7, HeLa, SK-OV-3) was placed in each well of the 96-well culture plate and allowed to grow in dulbecco's modified eagle medium or Leibovitz medium (L-15) supplemented with 10% fetal bovine serum overnight. The cells were incubated with serial dilution of compounds at 310 K in 5% fetal bovine serum containing media for 24 h supplied with 5% CO2. At the end of the compounds exposure, 20 μl of 3-(4,5-dimethyl-2-thiazolyl)-2,5-diphenyl-2-H-tetrazolium bromide reagent was added and incubated at 310 K for 4 h. The absorbance of formazan product was measured at 490 nm by a microplate reader (PerkinElmer, Waltham, MA, USA). Cells without peptide were treated as control. *P<0.05, **P<0.01, ***P<0.001 compared with vehicle-treated cells. In Z-VAD-FMK assays, *P<0.05, **P<0.01, ***P<0.001 compared with cells without treatment of Z-VAD-FMK.

MCF-7 = conditions: read-out: IC50 (μM), MCF-7; MTT assay, 24 h treatment, 5% FBS medium, 310 K; mean (standard deviation)
Experimental: as §2

SK-OV-3 = conditions: read-out: IC50 (μM), SK-OV-3; MTT assay, 24 h treatment, 5% FBS medium, 310 K; mean (standard deviation)
Experimental: as §2

MDA-MB-231 [2] = assay: Cell viability with or without caspase inhibitor Z-VAD-FMK; type: cell-based, human
[3] = mouse red blood cells 10^8/ml in 0.9% NaCl, 1 h, 310 K, absorbance 570 nm
[4] = organs excised 6 h after injection

Compound: CC(=O)N[C@H](Cc1c[nH]c2ccccc12)C(=O)NCCC(=O)N[C@H](CCC(=O)O)C(=O)N[C@H](CCC(=O)O)C(=O)N[C@H](CCC(=O)O)C(=O)N[C@H](CCC(=O)O)C(=O)N[C@H](CCC(=O)O)C(=O)N[C@H](CCC(=O)O)C(=O)N[C@H](CCC(=O)O)C(=O)N[C@H](CCC(=O)O)C(=O)NCCCCCC(=O)N1CCC[C@H]1C(=O)N[C@@H](CC(C)C)C(=O)NCC(=O)N[C@@H](CC(C)C)C(=O)N[C@@H](C)C(=O)NCC(=O)N[C@H](CCCCN)C(=O)N[C@H](CC(C)C)C(=O)NC(C)(C)C(=O)N[C@H](CCCCN)C(=O)N[C@H](CC(C)C)C(=O)NC(C)(C)C(=O)N[C@H](CCCCN)C(=O)N[C@H](CCCCN)C(=O)N[C@H](CC(C)C)C(=O)NC(C)(C)C(=O)N[C@H](CCCCN)C(=O)N[C@H](CC(C)C)C(=O)NC(C)(C)C(=O)N[C@H](CCCCN)C(N)=O [e8-Uk14] (Ac-[dW][βAla][dE][dE][dE][dE][dE][dE][dE][dE][Ahx]PLGLAG[dK][dL][Aib][dK][dL][Aib][dK][dK][dL][Aib][dK][dL][Aib][dK]-NH2)
- haemolytic activity (mouse red blood cells; [3]): diminished membrane disruption and haemolysis
- cytotoxicity against non-tumourigenic HEK293T (HEK293T): no obvious cytotoxicity
- tumour accumulation (in vivo fluorescence imaging) (MDA-MB-231 tumour): significantly higher accumulation in tumours compared to unmodified peptides
- accumulation in kidney (MDA-MB-231 tumour; [4]): lower accumulation in the kidney
- accumulation in liver (MDA-MB-231 tumour; [4]): higher accumulation in the liver
- uptake in excised tumour (MDA-MB-231 tumour; [4]): higher compared to UK14 and Ur11
- acute toxicity (survival) (nude mice): no acute toxicity

Compound: CC(=O)N[C@H](Cc1c[nH]c2ccccc12)C(=O)NCCC(=O)N[C@H](CC(C)C)C(=O)N[C@H](CC(C)C)C(=O)N[C@H](CC(C)C)C(=O)N[C@H](CC(C)C)C(=O)NC(C)(C)C(=O)NC(C)(C)C(=O)NC(C)(C)C(=O)NC(C)(C)C(=O)N[C@H](CCCCN)C(=O)N[C@H](CCCCN)C(=O)N[C@H](CCCCN)C(=O)N[C@H](CCCCN)C(=O)N[C@H](CCCCN)C(=O)N[C@H](CCCCN)C(N)=O [lUk] (Ac-[dW][βAla][dL][dL][dL][dL][Aib][Aib][Aib][Aib][dK][dK][dK][dK][dK][dK]-NH2)
- cytotoxic activity towards MDA-MB-231 cells (in words) (MDA-MB-231 [1]; MTT assay, 24 h treatment): decreased efficiency

Compound: CC(=O)N[C@H](Cc1c[nH]c2ccccc12)C(=O)NCCC(=O)N[C@H](CCCCN)C(=O)N[C@H](CC(C)C)C(=O)N[C@H](C)C(=O)N[C@H](CCCCN)C(=O)N[C@H](CC(C)C)C(=O)N[C@H](C)C(=O)N[C@H](CCCCN)C(=O)N[C@H](CCCCN)C(=O)N[C@H](CC(C)C)C(=O)N[C@H](C)C(=O)N[C@H](CCCCN)C(=O)N[C@H](CC(C)C)C(=O)N[C@H](C)C(=O)N[C@H](CCCCN)C(N)=O [ak14]
- cytotoxic activity towards MDA-MB-231 cells (in words) (MDA-MB-231 [1]; MTT assay, 24 h treatment): only moderate efficiency
- IC50 (MDA-MB-231 [1]; MTT assay, 24 h treatment): > 30 µM

Compound: CC(=O)N[C@H](Cc1c[nH]c2ccccc12)C(=O)NCCC(=O)N[C@H](CC(C)C)C(=O)NC(C)(C)C(=O)N[C@H](CCCNC(=N)N)C(=O)N[C@H](CCCNC(=N)N)C(=O)N[C@H](CC(C)C)C(=O)NC(C)(C)C(=O)N[C@H](CCCNC(=N)N)C(=O)N[C@H](CC(C)C)C(=O)NC(C)(C)C(=O)N[C@H](CCCNC(=N)N)C(N)=O [Ur10] (Ac-[dW][βAla][dL][Aib][dR][dR][dL][Aib][dR][dL][Aib][dR]-NH2)
- cytotoxic activity towards MDA-MB-231 cells (in words) (MDA-MB-231 [1]; MTT assay, 24 h treatment): greatly diminished activity

Compound: CC(=O)N[C@H](Cc1c[nH]c2ccccc12)C(=O)NCCC(=O)N[C@H](CCC(=O)O)C(=O)N[C@H](CCC(=O)O)C(=O)N[C@H](CCC(=O)O)C(=O)N[C@H](CCC(=O)O)C(=O)N[C@H](CCC(=O)O)C(=O)N[C@H](CCC(=O)O)C(=O)N[C@H](CCC(=O)O)C(=O)NCCCCCC(=O)N1CCC[C@H]1C(=O)N[C@@H](CC(C)C)C(=O)NCC(=O)N[C@@H](CC(C)C)C(=O)N[C@@H](C)C(=O)NCC(=O)N[C@H](CCCNC(=N)N)C(=O)N[C@H](CC(C)C)C(=O)NC(C)(C)C(=O)N[C@H](CCCNC(=N)N)C(=O)N[C@H](CCCNC(=N)N)C(=O)N[C@H](CC(C)C)C(=O)NC(C)(C)C(=O)N[C@H](CCCNC(=N)N)C(=O)N[C@H](CC(C)C)C(=O)NC(C)(C)C(=O)N[C@H](CCCNC(=N)N)C(N)=O [e7-Ur11]
- haemolytic activity (mouse red blood cells; [3]): diminished membrane disruption and haemolysis
- cytotoxicity against non-tumourigenic HEK293T (HEK293T): no obvious cytotoxicity
- tumour accumulation (in vivo fluorescence imaging) (MDA-MB-231 tumour): significantly higher accumulation in tumours compared to unmodified peptides
- uptake in excised tumour (MDA-MB-231 tumour; [4]): higher compared to UK14 and Ur11
- acute toxicity (survival) (nude mice): caused death (one in three survived)
- kidney histology (haematoxylin-eosin staining) (kidney): bleeding was observed at the junction of renal

Compound: CC(=O)N[C@H](Cc1c[nH]c2ccccc12)C(=O)NCCC(=O)N[C@H](CCCNC(=N)N)C(=O)N[C@H](CC(C)C)C(=O)NC(C)(C)C(=O)N[C@H](CCCNC(=N)N)C(=O)N[C@H](CCCNC(=N)N)C(=O)N[C@H](CC(C)C)C(=O)NC(C)(C)C(=O)N[C@H](CCCNC(=N)N)C(=O)N[C@H](CC(C)C)C(=O)NC(C)(C)C(=O)N[C@H](CCCNC(=N)N)C(N)=O [Ur11] (Ac-[dW][βAla][dR][dL][Aib][dR][dR][dL][Aib][dR][dL][Aib][dR]-NH2)
- cytotoxic activity towards MDA-MB-231 cells (in words) (MDA-MB-231 [1]): no change in activity
- IC50 (MDA-MB-231 [1]; MTT assay, 24 h treatment): 8.9 µM
- IC50 (HeLa): 5.9 µM
- IC50 (MCF-7): 5.6 µM
- IC50 (SK-OV-3): 5.1 µM
- haemolytic activity (mouse red blood cells): strong haemolytic activity
- effect of caspase inhibitor Z-VAD-FMK on cytotoxic effect (MDA-MB-231 [2]): did not block

Compound: CC(=O)N[C@H](Cc1c[nH]c2ccccc12)C(=O)NCCC(=O)N[C@H](CCCNC(=N)N)C(=O)N[C@H](CC(C)C)C(=O)NC(C)(C)C(=O)N[C@H](CCCNC(=N)N)C(=O)N[C@H](CC(C)C)C(=O)NC(C)(C)C(=O)N[C@H](CCCNC(=N)N)C(=O)N[C@H](CCCNC(=N)N)C(=O)N[C@H](CC(C)C)C(=O)NC(C)(C)C(=O)N[C@H](CCCNC(=N)N)C(=O)N[C@H](CC(C)C)C(=O)NC(C)(C)C(=O)N[C@H](CCCNC(=N)N)C(N)=O [Ur14] (Ac-[dW][βAla][dR][dL][Aib][dR][dL][Aib][dR][dR][dL][Aib][dR][dL][Aib][dR]-NH2)
- cytotoxic activity towards MDA-MB-231 cells (in words) (MDA-MB-231 [1]; MTT assay, 24 h treatment): no significant improvements

Compound: CC(=O)N[C@H](Cc1c[nH]c2ccccc12)C(=O)NCCC(=O)N[C@H](CCCCN)C(=O)N[C@H](CC(C)C)C(=O)NC(C)(C)C(=O)N[C@H](CCCCN)C(=O)N[C@H](CC(C)C)C(=O)NC(C)(C)C(=O)N[C@H](CCCCN)C(=O)N[C@H](CCCCN)C(=O)N[C@H](CC(C)C)C(=O)NC(C)(C)C(=O)N[C@H](CCCCN)C(=O)N[C@H](CC(C)C)C(=O)NC(C)(C)C(=O)N[C@H](CCCCN)C(N)=O [Uk14] (Ac-[dW][βAla][dK][dL][Aib][dK][dL][Aib][dK][dK][dL][Aib][dK][dL][Aib][dK]-NH2)
- IC50 (MDA-MB-231 [1]; MTT assay, 24 h treatment): 4.5 µM
- IC50 (HeLa): 4.8 µM
- IC50 (MCF-7): 4.7 µM
- IC50 (SK-OV-3): 5.1 µM
- haemolytic activity (mouse red blood cells): strong haemolytic activity
- effect of caspase inhibitor Z-VAD-FMK on cytotoxic effect (MDA-MB-231 [2]): did not block

Compound: CC(=O)N[C@H](Cc1c[nH]c2ccccc12)C(=O)NCCC(=O)N[C@H](CCCCN)C(=O)N[C@H](CC(C)C)C(=O)NC(C)(C)C(=O)N[C@H](CCCCN)C(=O)N[C@H](CCCCN)C(=O)N[C@H](CC(C)C)C(=O)NC(C)(C)C(=O)N[C@H](CCCCN)C(=O)N[C@H](CC(C)C)C(=O)NC(C)(C)C(=O)N[C@H](CCCCN)C(N)=O [Uk11] (Ac-[dW][βAla][dK][dL][Aib][dK][dK][dL][Aib][dK][dL][Aib][dK]-NH2)
- cytotoxic activity towards MDA-MB-231 cells (in words) (MDA-MB-231 [1]; MTT assay, 24 h treatment): decreased efficiency
